From patent US8541617B2, “Cycloalkylphenyl substituted cyclic ketoenols” (Bayer Cropscience AG, priority 2006, dated 2013)

Tests used:
Assay type in all cases: in vivo
[1] = test system: green peach aphid (Myzus persicae); assay: Example G: Myzus persicae test, hydroponic treatment (MYZUPE sys.); settings: concentration 20 ppm, pea plant
Description: Myzus persicae Test, Hydroponic Treatment (MYZUPE sys.)
Solvent: 7 parts by weight of dimethylformamide
Emulsifier: 2 parts by weight of alkylaryl polyglycol ether
To produce a suitable preparation of active compound, 1 part by weight of active compound is mixed with the stated amounts of solvent and emulsifier, and the concentrate is diluted with water to the desired concentration.
The preparation of active compound is mixed with water. The stated concentration refers to the amount of active compound per volume unit of water (mg/l=ppm). The treated water is filled into vessels containing a pea plant (Pisum sativum) which is then infested with the green peach aphid (Myzus persicae).
After the desired period of time, the kill in percent is determined. 100% means that all aphids have been killed; 0% means that none of the aphids have been killed.

Lolium multiflorum = assay: Example B: Herbicidal post-emergence action; settings: application rate 320 g/ha, rated after about 3 weeks
Description: (§1) Herbicidal Post-Emergence Action
(§2) Seeds of monocotylos and dicotylos weed and crop plants are placed in sandy lawn in wood fibre pots, covered with soil and cultivated in a greenhouse under good growth conditions. Two to three weeks after sowing, the test plants are treated at the one-leaf stage. The test compounds, formulated as wettable powders (WP) or as emulsion concentrates (EC), are then, as an aqueous suspension with a water application rate of 800 l/ha (converted), with 0.2% of wetting agent added, sprayed onto the green parts of the plants. After the test plants have been kept in the greenhouse under optimum growth conditions for about 3 weeks, the effect of the preparations is rated visually in comparison to untreated controls (herbicidal effect in percent (%): 100% effect=the plants have died, 0% effect=like control plants).

Setaria viridis = assay: Example B: Herbicidal post-emergence action; settings: application rate 320 g/ha, rated after about 3 weeks
Description: as §1, §2

Row | Compound | efficacy (kill of aphids) [1] | herbicidal effect (efficacy), post-emergence (Lolium multiflorum) | herbicidal effect (efficacy), post-emergence (Setaria viridis)
1 | COC1CCC2(CC1)NC(=O)C(c1c(C)cc(C3CC3)cc1C)=C2O (stereo not drawn) [Example I-1-a-4] | ≥ 90% | – | –
2 | CCOC(=O)OC1=C(c2c(C)cc(C3CC3)cc2CC)C(=O)NC12CCC(OC)CC2 (stereo not drawn) [Example I-1-c-1] | – | ≥ 90% | ≥ 90%
